In US20250382332A1, “NOVEL ALPHA-FACTOR BASED PEPTIDES WITH ANTIFUNGAL ACTIVITY” (INVAIO SCIENCES, INC., priority 2024, published 2025):
Peptide text beside a SMILES is read from it.

System: Botrytis cinerea (B05.10)
Assay: Resazurin antifungal assay of 180 alpha-factor peptide variants towards Botrytis (Example 2)
Format: cell-based
Conditions: % inhibition of fungal growth, Botrytis conidia, resazurin; for Inhibition at 50 μM: peptide 50 μM; for Inhibition at 100 μM: peptide 100 μM
Outline: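 Resazurin viability read-out (570/620 nm fluorescence) after a 24 h, 20° C incubation of B05.10 conidia, 5000 per well, with peptide at final 10-100 μM. Growth inhibition (%) was derived by subtracting conidia-only fluorescence; four replicates per treatment.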

Structure (SMILES): CC[C@H](C)[C@H](NC(=O)[C@H](CCC(N)=O)NC(=O)[C@H](CC(C)C)NC(=O)[C@H](Cc1ccccc1)NC(=O)[C@H](Cc1c[nH]cn1)NC(=O)[C@@H](N)Cc1c[nH]c2ccccc12)C(=O)N[C@@H](CCCCN)C(=O)N1CCC[C@H]1C(=O)NCC(=O)N[C@@H](CCC(=O)O)C(=O)N1CCC[C@H]1C(=O)N[C@@H](CCSC)C(=O)N[C@@H](Cc1ccc(O)cc1)C(=O)O [compound 150] (H-WHFLQIKPGEPMY-OH; N-terminus and C-terminus assumed)
- Inhibition at 50 μM: <90%
- Inhibition at 100 μM: <90%

Structure (SMILES): CSCC[C@H](NC(=O)[C@@H]1CCCN1C(=O)[C@H](CCC(N)=O)NC(=O)CNC(=O)[C@@H]1CCCN1C(=O)[C@H](CCCCN)NC(=O)[C@H](CC(C)C)NC(=O)[C@H](CC(N)=O)NC(=O)[C@H](CC(C)C)NC(=O)[C@H](Cc1c[nH]c2ccccc12)NC(=O)[C@H](CCC(=O)O)NC(=O)[C@@H](N)CCCCN)C(=O)N[C@@H](Cc1ccc(O)cc1)C(=O)O [compound 151] (H-KEWLNLKPGQPMY-OH; N-terminus and C-terminus assumed)
- Inhibition at 50 μM: <90%
- Inhibition at 100 μM: <90%

Structure (SMILES): CC[C@H](C)[C@H](NC(=O)[C@H](CCC(N)=O)NC(=O)[C@H](CC(C)C)NC(=O)[C@H](Cc1c[nH]c2ccccc12)NC(=O)[C@H](CO)NC(=O)[C@@H](N)CCCCN)C(=O)N[C@@H](CCCCN)C(=O)N[C@@H](CC(N)=O)C(=O)NCC(=O)N[C@@H](CCC(N)=O)C(=O)N1CCC[C@H]1C(=O)N[C@@H](CCSC)C(=O)N[C@@H](Cc1ccc(O)cc1)C(=O)O [compound 152] (H-KSWLQIKNGQPMY-OH; N-terminus and C-terminus assumed)
- Inhibition at 50 μM: <90%
- Inhibition at 100 μM: <90%

Structure (SMILES): CC[C@H](C)[C@H](NC(=O)CNC(=O)[C@@H](N)CCCCN)C(=O)N[C@@H](CC(C)C)C(=O)N[C@H](C(=O)N[C@@H](CC(C)C)C(=O)N[C@@H](CCCCN)C(=O)N1CCC[C@H]1C(=O)NCC(=O)N[C@@H](CCC(N)=O)C(=O)N1CCC[C@H]1C(=O)N[C@@H](CCSC)C(=O)N[C@@H](Cc1ccc(O)cc1)C(=O)O)[C@@H](C)O [compound 153] (H-KGILTLKPGQPMY-OH; N-terminus and C-terminus assumed)
- Inhibition at 50 μM: <90%
- Inhibition at 100 μM: <90%

Structure (SMILES): CSCC[C@H](NC(=O)[C@@H]1CCCN1C(=O)[C@H](CO)NC(=O)CNC(=O)[C@@H]1CCCN1C(=O)[C@H](CCCCN)NC(=O)[C@H](CC(C)C)NC(=O)[C@H](C)NC(=O)[C@H](CC(C)C)NC(=O)[C@@H](NC(=O)[C@H](Cc1c[nH]cn1)NC(=O)[C@@H](N)CCCCN)C(C)C)C(=O)N[C@@H](Cc1ccc(O)cc1)C(=O)O [compound 154] (H-KHVLALKPGSPMY-OH; N-terminus and C-terminus assumed)
- Inhibition at 50 μM: <90%
- Inhibition at 100 μM: <90%

Structure (SMILES): CC[C@H](C)[C@H](NC(=O)[C@H](CCCCN)NC(=O)[C@@H](N)Cc1c[nH]c2ccccc12)C(=O)N[C@@H](CC(C)C)C(=O)N[C@H](C(=O)N[C@H](C(=O)N[C@@H](CCCCN)C(=O)N1CCC[C@H]1C(=O)NCC(=O)N[C@@H](CCC(N)=O)C(=O)N1CCC[C@H]1C(=O)N[C@@H](CCSC)C(=O)N[C@@H](Cc1ccc(O)cc1)C(=O)O)[C@@H](C)CC)[C@@H](C)O [compound 155] (H-WKILTIKPGQPMY-OH; N-terminus and C-terminus assumed)
- Inhibition at 50 μM: <90%
- Inhibition at 100 μM: <90%

Structure (SMILES): CSCC[C@H](NC(=O)[C@@H]1CCCN1C(=O)[C@H](CO)NC(=O)CNC(=O)[C@H](CC(N)=O)NC(=O)[C@H](CCCCN)NC(=O)[C@H](CC(C)C)NC(=O)[C@H](CCC(N)=O)NC(=O)[C@@H](NC(=O)[C@H](CC(=O)O)NC(=O)[C@H](Cc1c[nH]cn1)NC(=O)[C@@H](N)CCCCN)C(C)C)C(=O)N[C@@H](Cc1ccc(O)cc1)C(=O)O [compound 156] (H-KHDVQLKNGSPMY-OH; N-terminus and C-terminus assumed)
- Inhibition at 50 μM: <90%
- Inhibition at 100 μM: <90%

Structure (SMILES): CSCC[C@H](NC(=O)[C@@H]1CCCN1C(=O)[C@H](CCC(N)=O)NC(=O)CNC(=O)[C@@H](NC(=O)[C@H](CCC(N)=O)NC(=O)[C@H](Cc1ccccc1)NC(=O)[C@H](CC(N)=O)NC(=O)CNC(=O)[C@H](Cc1c[nH]c2ccccc12)NC(=O)[C@H](Cc1c[nH]cn1)NC(=O)[C@@H](N)Cc1c[nH]c2ccccc12)[C@@H](C)O)C(=O)N[C@@H](Cc1ccc(O)cc1)C(=O)O [compound 157] (H-WHWGNFQTGQPMY-OH; N-terminus and C-terminus assumed)
- Inhibition at 50 μM: <90%
- Inhibition at 100 μM: 97.14%

Structure (SMILES): CSCC[C@H](NC(=O)[C@@H]1CCCN1C(=O)[C@H](CCC(=O)O)NC(=O)CNC(=O)[C@@H]1CCCN1C(=O)[C@H](CCCCN)NC(=O)[C@H](CC(C)C)NC(=O)[C@H](CC(N)=O)NC(=O)[C@H](CC(C)C)NC(=O)[C@H](Cc1c[nH]c2ccccc12)NC(=O)[C@H](Cc1c[nH]cn1)NC(=O)[C@@H]1CCCN1)C(=O)N[C@@H](Cc1ccc(O)cc1)C(=O)O [compound 158] (H-PHWLNLKPGEPMY-OH; N-terminus and C-terminus assumed)
- Inhibition at 50 μM: <90%
- Inhibition at 100 μM: <90%

Structure (SMILES): CSCC[C@H](NC(=O)[C@H](CO)NC(=O)[C@H](CCC(N)=O)NC(=O)CNC(=O)[C@@H]1CCCN1C(=O)[C@H](CCCCN)NC(=O)[C@H](Cc1ccccc1)NC(=O)[C@H](CC(N)=O)NC(=O)[C@H](CC(C)C)NC(=O)[C@H](CO)NC(=O)[C@H](CCCCN)NC(=O)[C@@H](N)Cc1c[nH]c2ccccc12)C(=O)N[C@@H](Cc1ccc(O)cc1)C(=O)O [compound 159] (H-WKSLNFKPGQSMY-OH; N-terminus and C-terminus assumed)
- Inhibition at 50 μM: <90%
- Inhibition at 100 μM: <90%

Structure (SMILES): CSCC[C@H](NC(=O)[C@@H]1CCCN1C(=O)[C@H](CCC(N)=O)NC(=O)CNC(=O)[C@@H]1CCCN1C(=O)[C@H](CCCCN)NC(=O)[C@H](CC(C)C)NC(=O)[C@H](CO)NC(=O)[C@@H](NC(=O)[C@H](Cc1c[nH]c2ccccc12)NC(=O)[C@H](Cc1c[nH]cn1)NC(=O)[C@@H]1CCCN1)C(C)C)C(=O)N[C@@H](Cc1ccc(O)cc1)C(=O)O [compound 160] (H-PHWVSLKPGQPMY-OH; N-terminus and C-terminus assumed)
- Inhibition at 50 μM: <90%
- Inhibition at 100 μM: <90%

Structure (SMILES): CSCC[C@H](NC(=O)[C@@H]1CCCN1C(=O)[C@H](CO)NC(=O)CNC(=O)[C@@H]1CCCN1C(=O)[C@H](CCCCN)NC(=O)[C@H](Cc1ccccc1)NC(=O)[C@H](C)NC(=O)[C@@H](NC(=O)[C@H](Cc1c[nH]c2ccccc12)NC(=O)[C@H](Cc1c[nH]cn1)NC(=O)[C@@H]1CCCN1)C(C)C)C(=O)N[C@@H](Cc1ccc(O)cc1)C(=O)O [compound 161] (H-PHWVAFKPGSPMY-OH; N-terminus and C-terminus assumed)
- Inhibition at 50 μM: <90%
- Inhibition at 100 μM: 90.52%

Structure (SMILES): CSCC[C@H](NC(=O)[C@@H]1CCCN1C(=O)[C@H](CCC(N)=O)NC(=O)CNC(=O)[C@@H]1CCCN1C(=O)[C@H](CCCCN)NC(=O)[C@H](CC(C)C)NC(=O)[C@H](CCC(=O)O)NC(=O)[C@H](CC(C)C)NC(=O)[C@H](Cc1ccc(O)cc1)NC(=O)[C@H](Cc1c[nH]cn1)NC(=O)[C@@H](N)CCCCN)C(=O)N[C@@H](Cc1ccc(O)cc1)C(=O)O [compound 162] (H-KHYLELKPGQPMY-OH; N-terminus and C-terminus assumed)
- Inhibition at 50 μM: <90%
- Inhibition at 100 μM: <90%

Structure (SMILES): CSCC[C@H](NC(=O)[C@H](Cc1c[nH]cn1)NC(=O)[C@@H](N)Cc1c[nH]c2ccccc12)C(=O)N[C@H](C(=O)N[C@@H](CCC(N)=O)C(=O)N[C@@H](CC(C)C)C(=O)N[C@@H](CCCCN)C(=O)N1CCC[C@H]1C(=O)NCC(=O)N[C@@H](CCC(=O)O)C(=O)N1CCC[C@H]1C(=O)N[C@@H](CCSC)C(=O)N[C@@H](Cc1ccc(O)cc1)C(=O)O)C(C)C [compound 163] (H-WHMVQLKPGEPMY-OH; N-terminus and C-terminus assumed)
- Inhibition at 50 μM: <90%
- Inhibition at 100 μM: <90%

Structure (SMILES): CSCC[C@H](NC(=O)[C@@H]1CCCN1C(=O)[C@H](CCC(N)=O)NC(=O)CNC(=O)[C@@H]1CCCN1C(=O)[C@H](CCCCN)NC(=O)[C@H](CC(C)C)NC(=O)[C@H](CO)NC(=O)[C@H](CC(C)C)NC(=O)[C@@H](NC(=O)CNC(=O)[C@@H](N)CCCCN)[C@@H](C)O)C(=O)N[C@@H](Cc1ccc(O)cc1)C(=O)O [compound 164] (H-KGTLSLKPGQPMY-OH; N-terminus and C-terminus assumed)
- Inhibition at 50 μM: <90%
- Inhibition at 100 μM: <90%

Structure (SMILES): CSCC[C@H](NC(=O)[C@@H]1CCCN1C(=O)[C@H](CCC(N)=O)NC(=O)CNC(=O)[C@@H]1CCCN1C(=O)[C@H](CCCCN)NC(=O)[C@H](Cc1ccccc1)NC(=O)[C@H](CCC(=O)O)NC(=O)[C@H](CC(C)C)NC(=O)[C@H](CO)NC(=O)[C@H](Cc1c[nH]cn1)NC(=O)[C@@H](N)CCCCN)C(=O)N[C@@H](Cc1ccc(O)cc1)C(=O)O [compound 165] (H-KHSLEFKPGQPMY-OH; N-terminus and C-terminus assumed)
- Inhibition at 50 μM: <90%
- Inhibition at 100 μM: <90%

Structure (SMILES): CSCC[C@H](NC(=O)[C@@H]1CCCN1C(=O)[C@H](CCC(N)=O)NC(=O)CNC(=O)[C@H](CCCNC(=N)N)NC(=O)[C@H](CCCCN)NC(=O)[C@H](Cc1ccccc1)NC(=O)[C@H](CCC(N)=O)NC(=O)[C@@H](NC(=O)[C@H](Cc1ccccc1)NC(=O)[C@H](CCC(=O)O)NC(=O)[C@@H](N)Cc1c[nH]c2ccccc12)C(C)C)C(=O)N[C@@H](Cc1ccc(O)cc1)C(=O)O [compound 166] (H-WEFVQFKRGQPMY-OH; N-terminus and C-terminus assumed)
- Inhibition at 50 μM: <90%
- Inhibition at 100 μM: <90%
